Data set [1] relates to MOLM-13. The data set can be described thus: Induction of apoptosis in human MOLM13 cells assessed as increase in FasL level up to 20 uM. The class given is functional, cell-based.
The target in data set [2] is Serine/threonine-protein kinase Chk1 (Homo sapiens) (UniProt O14757). The experiment in a line: Inhibition of CHK1 (unknown origin) at 1 uM.
In data set [3] the target is Epidermal growth factor receptor (Homo sapiens) (UniProt P00533). The data set can be described thus: Inhibition of EGFR (unknown origin) at 1 uM.
Data set [4] deals with Platelet-derived growth factor receptor alpha (Homo sapiens) (UniProt P16234). The experiment in a line: Inhibition of PDGFRalpha (unknown origin) at 1 uM.
Platelet-derived growth factor receptor alpha (Homo sapiens), sequence (P16234 whole entry): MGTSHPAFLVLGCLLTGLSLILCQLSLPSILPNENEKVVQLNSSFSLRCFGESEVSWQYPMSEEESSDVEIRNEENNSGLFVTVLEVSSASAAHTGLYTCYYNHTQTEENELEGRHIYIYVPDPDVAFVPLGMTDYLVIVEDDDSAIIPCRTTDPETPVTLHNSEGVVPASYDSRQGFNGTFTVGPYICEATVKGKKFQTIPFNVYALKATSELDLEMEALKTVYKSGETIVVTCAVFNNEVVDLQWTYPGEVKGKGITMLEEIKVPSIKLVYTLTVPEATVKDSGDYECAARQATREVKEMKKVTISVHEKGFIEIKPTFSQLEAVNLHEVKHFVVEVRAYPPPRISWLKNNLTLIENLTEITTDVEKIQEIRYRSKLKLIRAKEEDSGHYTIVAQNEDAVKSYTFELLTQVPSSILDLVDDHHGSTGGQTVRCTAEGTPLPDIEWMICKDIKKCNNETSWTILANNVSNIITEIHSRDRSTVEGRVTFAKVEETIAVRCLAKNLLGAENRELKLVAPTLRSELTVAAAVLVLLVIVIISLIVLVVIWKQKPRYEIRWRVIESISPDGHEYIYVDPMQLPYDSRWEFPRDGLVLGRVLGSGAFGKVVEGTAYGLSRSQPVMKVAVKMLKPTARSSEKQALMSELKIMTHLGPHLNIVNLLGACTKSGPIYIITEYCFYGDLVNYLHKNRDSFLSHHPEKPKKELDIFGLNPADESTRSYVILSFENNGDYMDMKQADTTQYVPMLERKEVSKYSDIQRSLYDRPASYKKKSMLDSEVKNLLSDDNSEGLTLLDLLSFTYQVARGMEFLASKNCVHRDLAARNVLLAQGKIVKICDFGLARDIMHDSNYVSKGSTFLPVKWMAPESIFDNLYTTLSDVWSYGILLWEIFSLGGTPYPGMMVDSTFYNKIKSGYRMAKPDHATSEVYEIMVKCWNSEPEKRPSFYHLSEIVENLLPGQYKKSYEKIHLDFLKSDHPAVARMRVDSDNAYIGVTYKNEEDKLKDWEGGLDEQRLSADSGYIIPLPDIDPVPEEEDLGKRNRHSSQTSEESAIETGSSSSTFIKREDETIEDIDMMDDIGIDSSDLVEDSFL
The target of data set [5] is Receptor-type tyrosine-protein kinase FLT3 (Homo sapiens) (UniProt P36888). The experiment in a line: Inhibition of Aurora B/FLT3 in human MOLM13 cells assessed as inhibition of HH3 phosphorylation after 4 hrs by Dot-blot analysis. The class given is cell-based. As to conditions: MOLM-13.
Data set [6] has the same target. The data set can be described thus: Inhibition of Aurora B/FLT3 in human MOLM13 cells assessed as inhibition of STAT5 phosphorylation after 4 hrs by Dot-blot analysis. The class given is cell-based. The conditions noted are these: MOLM-13.
The target in data set [7] is Tyrosine-protein kinase JAK2 (Homo sapiens) (UniProt O60674). The data set can be described thus: Inhibition of JAK2 (unknown origin) at 1 uM.
The target in data set [8] is Insulin-like growth factor 1 receptor (Homo sapiens) (UniProt P08069). The data set can be described thus: Inhibition of IGF1R (unknown origin) at 1 uM.
Data set [9] deals with Aurora kinase C (Homo sapiens) (UniProt Q9UQB9). The experiment in a line: Inhibition of Aurora C (unknown origin) at 1 uM.
Aurora kinase C (Homo sapiens), sequence (Q9UQB9 whole entry): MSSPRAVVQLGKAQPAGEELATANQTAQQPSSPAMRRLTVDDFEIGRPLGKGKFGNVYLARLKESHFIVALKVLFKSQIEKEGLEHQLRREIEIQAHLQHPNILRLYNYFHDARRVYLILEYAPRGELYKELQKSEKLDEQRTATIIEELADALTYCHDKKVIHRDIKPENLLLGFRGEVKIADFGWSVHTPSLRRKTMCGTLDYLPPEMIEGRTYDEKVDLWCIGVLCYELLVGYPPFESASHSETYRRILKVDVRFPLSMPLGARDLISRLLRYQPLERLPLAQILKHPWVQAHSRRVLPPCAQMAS
In data set [10] the test system is MOLM-13. The experiment in a line: Induction of apoptosis in human MOLM13 cells assessed as caspase 3 activation after 24 hrs. It is filed as functional, cell-based.
Data set [11] addresses RAC-alpha serine/threonine-protein kinase (Homo sapiens) (UniProt P31749). The data set can be described thus: Inhibition of AKT1 (unknown origin) at 1 uM.
Data set [12] has as its target Mitogen-activated protein kinase 9 (Homo sapiens) (UniProt P45984). The data set can be described thus: Inhibition of JNK2 (unknown origin) at 1 uM.
In data set [13] the target is Proto-oncogene tyrosine-protein kinase Src (Homo sapiens) (UniProt P12931). The data set can be described thus: Inhibition of c-Src (unknown origin) at 1 uM.
Data set [14] has as its target Serine/threonine-protein kinase mTOR (Homo sapiens) (UniProt P42345). The data set can be described thus: Inhibition of mTOR/FRAP1 (unknown origin) at 1 uM.
Data set [15] concerns the target Rho-associated protein kinase 1 (Homo sapiens) (UniProt Q13464). The data set can be described thus: Inhibition of ROCK1 (unknown origin) at 1 uM.
The test system of data set [16] is MOLM-13. The data set can be described thus: Antitumor activity against human MOLM13 cells xenografted in ip dosed BALB/c AnN.Cg-Foxnlnu/CrlNarl mouse assessed as reduction in tumor growth treated once daily for 16 days. The class given is functional, organism-based.
Data set [17] addresses Dual specificity mitogen-activated protein kinase kinase 1 (Homo sapiens) (UniProt Q02750). The experiment in a line: Inhibition of MEK1/MAP2K1 (unknown origin) at 1 uM.
In data set [18] the target is Tyrosine-protein kinase ABL1 (Homo sapiens) (UniProt P00519). The experiment in a line: Inhibition of ABL1 (unknown origin) at 1 uM.
Tyrosine-protein kinase ABL1 (Homo sapiens), sequence (P00519 whole entry): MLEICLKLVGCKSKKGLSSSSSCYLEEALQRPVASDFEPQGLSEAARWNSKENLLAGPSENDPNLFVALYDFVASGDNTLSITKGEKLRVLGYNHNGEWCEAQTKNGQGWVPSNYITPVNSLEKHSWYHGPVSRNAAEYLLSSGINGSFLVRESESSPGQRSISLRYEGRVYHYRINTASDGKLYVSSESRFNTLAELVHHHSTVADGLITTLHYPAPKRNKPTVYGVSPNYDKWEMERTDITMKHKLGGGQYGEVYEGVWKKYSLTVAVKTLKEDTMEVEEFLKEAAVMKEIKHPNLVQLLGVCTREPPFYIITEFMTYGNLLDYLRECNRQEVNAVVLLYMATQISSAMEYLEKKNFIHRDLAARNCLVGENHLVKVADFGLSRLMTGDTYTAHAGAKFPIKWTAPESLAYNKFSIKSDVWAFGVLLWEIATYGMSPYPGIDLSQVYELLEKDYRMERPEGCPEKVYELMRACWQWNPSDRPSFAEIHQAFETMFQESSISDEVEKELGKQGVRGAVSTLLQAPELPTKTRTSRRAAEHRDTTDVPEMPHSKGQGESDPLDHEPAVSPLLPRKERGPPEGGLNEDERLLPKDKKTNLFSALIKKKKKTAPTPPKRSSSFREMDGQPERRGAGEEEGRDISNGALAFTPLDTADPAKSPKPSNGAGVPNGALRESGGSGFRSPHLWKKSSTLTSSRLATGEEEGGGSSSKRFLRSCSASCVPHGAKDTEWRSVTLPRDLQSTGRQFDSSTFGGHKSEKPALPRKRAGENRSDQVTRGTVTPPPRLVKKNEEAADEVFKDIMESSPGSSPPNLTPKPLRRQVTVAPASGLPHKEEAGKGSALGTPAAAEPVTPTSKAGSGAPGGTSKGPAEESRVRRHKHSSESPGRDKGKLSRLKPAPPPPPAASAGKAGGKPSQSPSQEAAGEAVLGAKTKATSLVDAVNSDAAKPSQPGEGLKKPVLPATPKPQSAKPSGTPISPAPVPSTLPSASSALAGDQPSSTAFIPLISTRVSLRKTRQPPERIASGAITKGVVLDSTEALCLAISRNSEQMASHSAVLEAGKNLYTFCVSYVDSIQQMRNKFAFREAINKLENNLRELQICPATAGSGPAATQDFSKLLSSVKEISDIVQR
Data set [19] has as its target Tyrosine-protein kinase Lck (Homo sapiens, UniProt P06239). As to conditions: 1 uM.
Description: Inhibition of Lck (unknown origin) at 1 uM
In another data set the test system is A549. The data set can be described thus: Induction of apoptosis in human A549 cells assessed as caspase 8 activation after 24 hrs. The class given is functional, cell-based.
The target of data set [20] is Angiopoietin-1 receptor (Homo sapiens) (UniProt Q02763). The data set can be described thus: Inhibition of TEK/Tie-2 (unknown origin) at 1 uM.
Data set [21] has as its target Fibroblast growth factor receptor 1 (Homo sapiens) (UniProt P11362). The data set can be described thus: Inhibition of FGFR1 (unknown origin) at 1 uM.
Data set [22] concerns the target Serine/threonine-protein kinase B-raf (Homo sapiens) (UniProt P15056). The data set can be described thus: Inhibition of BRAF (unknown origin) at 1 uM.
Data set [23] addresses Serine/threonine-protein kinase PLK1 (Homo sapiens) (UniProt P53350). The experiment in a line: Inhibition of Plk1 (unknown origin) at 1 uM.
Data set [24] concerns the target Tyrosine-protein kinase Lyn (Homo sapiens) (UniProt P07948). The data set can be described thus: Inhibition of Lyn (unknown origin) at 1 uM.
For data set [25], the target named is Receptor tyrosine-protein kinase erbB-2 (Homo sapiens) (UniProt P04626). The experiment in a line: Inhibition of ERBB2/Her2 (unknown origin) at 1 uM.
For data set [26], the target named is Hepatocyte growth factor receptor (Homo sapiens) (UniProt P08581). The experiment in a line: Inhibition of c-Met (unknown origin) at 1 uM.
For data set [27], the target named is Platelet-derived growth factor receptor beta (Homo sapiens) (UniProt P09619). The data set can be described thus: Inhibition of PDGFRbeta (unknown origin) at 1 uM.
Platelet-derived growth factor receptor beta (Homo sapiens), sequence (P09619 whole entry): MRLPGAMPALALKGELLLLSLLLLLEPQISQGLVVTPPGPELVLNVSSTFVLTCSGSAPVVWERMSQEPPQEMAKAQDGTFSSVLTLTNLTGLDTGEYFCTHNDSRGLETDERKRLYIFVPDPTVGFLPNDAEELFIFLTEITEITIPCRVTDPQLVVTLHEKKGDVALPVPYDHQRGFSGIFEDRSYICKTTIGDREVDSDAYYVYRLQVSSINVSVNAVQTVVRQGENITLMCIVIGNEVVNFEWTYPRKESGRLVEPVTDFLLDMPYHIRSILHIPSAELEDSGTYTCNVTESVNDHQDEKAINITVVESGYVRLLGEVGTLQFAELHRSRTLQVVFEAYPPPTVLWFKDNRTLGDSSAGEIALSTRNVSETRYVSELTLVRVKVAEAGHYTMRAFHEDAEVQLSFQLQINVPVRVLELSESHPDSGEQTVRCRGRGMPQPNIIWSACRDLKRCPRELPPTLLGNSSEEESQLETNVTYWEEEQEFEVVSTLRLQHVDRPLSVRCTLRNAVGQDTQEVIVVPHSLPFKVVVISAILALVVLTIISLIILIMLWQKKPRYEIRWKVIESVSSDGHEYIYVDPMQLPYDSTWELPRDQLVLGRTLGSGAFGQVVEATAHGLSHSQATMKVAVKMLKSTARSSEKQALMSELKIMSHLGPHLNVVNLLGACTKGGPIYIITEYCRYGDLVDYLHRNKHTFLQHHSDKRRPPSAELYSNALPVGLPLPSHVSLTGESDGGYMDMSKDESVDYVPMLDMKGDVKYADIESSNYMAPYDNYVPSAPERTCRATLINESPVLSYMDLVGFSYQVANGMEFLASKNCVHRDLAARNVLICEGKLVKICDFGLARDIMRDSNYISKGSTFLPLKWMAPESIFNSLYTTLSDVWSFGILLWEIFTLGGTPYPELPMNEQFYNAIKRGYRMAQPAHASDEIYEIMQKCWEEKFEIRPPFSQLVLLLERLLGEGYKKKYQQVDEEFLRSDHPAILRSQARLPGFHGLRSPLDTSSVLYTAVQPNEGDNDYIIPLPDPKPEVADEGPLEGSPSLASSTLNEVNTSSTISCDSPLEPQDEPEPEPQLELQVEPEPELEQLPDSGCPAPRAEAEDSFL
In data set [28] the target is Vascular endothelial growth factor receptor 2 (Homo sapiens) (UniProt P35968). The data set can be described thus: Inhibition of KDR/VEGFR2 (unknown origin) at 1 uM.
The subject of data set [29] is MOLM-13. The data set can be described thus: Induction of apoptosis in human MOLM13 cells assessed as caspase 8 activation after 24 hrs. The class given is functional, cell-based.
In data set [30] the test system is THP-1. The experiment in a line: Induction of apoptosis in human THP1 cells assessed as caspase 3 activation after 24 hrs. The class given is functional, cell-based.
Data set [31] relates to THP-1. The data set can be described thus: Induction of apoptosis in human THP1 cells assessed as caspase 8 activation after 24 hrs. The class given is functional, cell-based.
The target in data set [32] is Aurora kinase A (Homo sapiens) (UniProt O14965). The experiment in a line: Inhibition of Aurora A (unknown origin) at 1 uM.
Aurora kinase A (Homo sapiens), sequence (O14965 whole entry): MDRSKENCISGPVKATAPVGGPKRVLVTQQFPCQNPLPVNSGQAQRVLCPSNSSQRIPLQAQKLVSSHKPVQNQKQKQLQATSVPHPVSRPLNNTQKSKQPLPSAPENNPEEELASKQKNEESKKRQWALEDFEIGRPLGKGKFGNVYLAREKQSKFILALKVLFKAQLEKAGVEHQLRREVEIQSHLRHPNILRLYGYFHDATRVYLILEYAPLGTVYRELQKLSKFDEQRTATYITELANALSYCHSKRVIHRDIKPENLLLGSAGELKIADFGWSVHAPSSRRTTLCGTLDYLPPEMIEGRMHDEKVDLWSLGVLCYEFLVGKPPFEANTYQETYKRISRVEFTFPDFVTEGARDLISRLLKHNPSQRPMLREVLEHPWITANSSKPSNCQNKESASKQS
Data set [33] can be described thus: Cytotoxicity against human HL60 cells assessed as cell viability after 48 hrs by MTT assay. It is filed as functional, cell-based. As to conditions: HL-60, 48 h. On the technique in general: Formazan colour is commonly taken as a measure of viable cells.
The subject of data set [34] is MOLM-13. The data set can be described thus: Cytotoxicity against human MOLM13 cells assessed as cell viability after 48 hrs by MTT assay. It is filed as functional, cell-based. As to conditions: MOLM-13, 48 h.
Data set [35] has as its system THP-1. The data set can be described thus: Cytotoxicity against human THP1 cells assessed as cell viability after 48 hrs by MTT assay. The conditions noted are these: Homo sapiens, THP-1, 48 h. It is filed as functional, cell-based.
Data set [36] has as its system MV4-11. The experiment in a line: Cytotoxicity against human MV4-11 cells assessed as cell viability after 48 hrs by MTT assay. The class given is functional, cell-based. As to conditions: Homo sapiens, MV4-11, 48 h.
In data set [37] the target is T1, Receptor-type tyrosine-protein kinase FLT3 (Homo sapiens, UniProt P36888).
T1 sequence (P36888 whole entry): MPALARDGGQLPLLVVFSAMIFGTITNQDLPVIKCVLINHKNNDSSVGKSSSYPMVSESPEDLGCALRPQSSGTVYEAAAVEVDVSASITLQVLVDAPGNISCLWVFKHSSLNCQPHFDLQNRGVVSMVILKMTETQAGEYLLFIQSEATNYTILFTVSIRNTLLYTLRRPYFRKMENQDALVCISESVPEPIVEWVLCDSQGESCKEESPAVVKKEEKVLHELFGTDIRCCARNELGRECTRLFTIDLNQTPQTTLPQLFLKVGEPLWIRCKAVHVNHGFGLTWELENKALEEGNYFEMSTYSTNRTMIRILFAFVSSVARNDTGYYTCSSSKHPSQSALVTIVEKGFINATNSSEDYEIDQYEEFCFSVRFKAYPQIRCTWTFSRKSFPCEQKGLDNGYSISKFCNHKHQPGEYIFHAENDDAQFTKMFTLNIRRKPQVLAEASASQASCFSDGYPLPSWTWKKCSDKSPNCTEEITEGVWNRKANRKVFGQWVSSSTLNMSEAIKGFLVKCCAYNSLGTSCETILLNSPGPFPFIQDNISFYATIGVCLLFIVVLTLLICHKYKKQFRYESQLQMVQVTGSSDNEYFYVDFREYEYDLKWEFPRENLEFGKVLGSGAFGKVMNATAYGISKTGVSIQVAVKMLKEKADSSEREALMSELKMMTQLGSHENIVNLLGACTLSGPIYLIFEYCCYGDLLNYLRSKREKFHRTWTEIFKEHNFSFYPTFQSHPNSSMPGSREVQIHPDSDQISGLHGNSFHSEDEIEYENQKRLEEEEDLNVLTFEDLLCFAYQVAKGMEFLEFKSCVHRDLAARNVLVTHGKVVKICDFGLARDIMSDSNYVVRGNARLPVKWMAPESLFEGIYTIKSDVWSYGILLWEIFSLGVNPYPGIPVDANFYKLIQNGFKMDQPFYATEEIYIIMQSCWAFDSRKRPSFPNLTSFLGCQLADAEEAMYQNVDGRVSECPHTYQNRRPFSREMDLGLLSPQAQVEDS
The experiment in a line: Inhibition of FLT3 (unknown origin) using EAIYAAPFAKKK substrate.

A short description of data set [38]: Cytotoxicity against human HL60 cells assessed as cell viability at 1 uM after 48 hrs by MTT assay. The conditions noted are these: HL-60, 48 h, read-out: Activity. It is filed as functional.
The subject of data set [39] is MOLM-13. The data set can be described thus: Cytotoxicity against human MOLM13 cells assessed as cell viability at 1 uM after 48 hrs by MTT assay. The class given is functional. As to conditions: MOLM-13, 48 h, read-out: Activity.
For data set [40], the system named is THP-1. The experiment in a line: Cytotoxicity against human THP1 cells assessed as cell viability at 1 uM after 48 hrs by MTT assay. The class given is functional. The conditions noted are these: THP-1, 48 h, read-out: Activity.
Data set [41] has as its target T2, Aurora kinase B (Homo sapiens, UniProt Q96GD4). The data set can be described thus: Inhibition of Aurora B (unknown origin) using HLRRASLG substrate.
For data set [42], the system named is MV4-11. The data set can be described thus: Cytotoxicity against human MV4-11 cells assessed as cell viability at 1 uM after 48 hrs by MTT assay. The conditions noted are these: MV4-11, 48 h, read-out: Activity. It is filed as functional.
A short description of data set [43]: Ratio of solubility in PBS to solubility in DMSO. It is filed as physicochemical.
Data set [44] is described as follows: Permeability coefficient of the compound at pH 7.4 by PAMPA-GIT assay. It is filed as ADME. As to conditions: read-out: Peff. (PAMPA measures passive passage across an artificial lipid membrane.)
For data set [45], the target named is T2, Aurora kinase B. The experiment in a line: Inhibition of Aurora B (unknown origin) using HLRRASLG substrate at 1 uM.

The source made the active and inactive calls. The calls are words filed in the database; no cut-off is given here. Bounds are passed on as bounds.

T2 sequence (Q96GD4 whole entry): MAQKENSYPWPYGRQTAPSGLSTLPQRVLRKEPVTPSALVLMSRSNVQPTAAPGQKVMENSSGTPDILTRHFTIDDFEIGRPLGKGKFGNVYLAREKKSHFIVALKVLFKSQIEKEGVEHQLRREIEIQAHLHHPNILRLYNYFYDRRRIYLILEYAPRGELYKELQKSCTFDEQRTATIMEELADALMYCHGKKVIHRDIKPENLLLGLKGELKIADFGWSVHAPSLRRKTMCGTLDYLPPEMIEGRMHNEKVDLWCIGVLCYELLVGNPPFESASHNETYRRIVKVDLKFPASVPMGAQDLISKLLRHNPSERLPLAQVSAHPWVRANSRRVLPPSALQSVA
Tyrosine-protein kinase Lck, sequence (P06239 2-509 limits assumed): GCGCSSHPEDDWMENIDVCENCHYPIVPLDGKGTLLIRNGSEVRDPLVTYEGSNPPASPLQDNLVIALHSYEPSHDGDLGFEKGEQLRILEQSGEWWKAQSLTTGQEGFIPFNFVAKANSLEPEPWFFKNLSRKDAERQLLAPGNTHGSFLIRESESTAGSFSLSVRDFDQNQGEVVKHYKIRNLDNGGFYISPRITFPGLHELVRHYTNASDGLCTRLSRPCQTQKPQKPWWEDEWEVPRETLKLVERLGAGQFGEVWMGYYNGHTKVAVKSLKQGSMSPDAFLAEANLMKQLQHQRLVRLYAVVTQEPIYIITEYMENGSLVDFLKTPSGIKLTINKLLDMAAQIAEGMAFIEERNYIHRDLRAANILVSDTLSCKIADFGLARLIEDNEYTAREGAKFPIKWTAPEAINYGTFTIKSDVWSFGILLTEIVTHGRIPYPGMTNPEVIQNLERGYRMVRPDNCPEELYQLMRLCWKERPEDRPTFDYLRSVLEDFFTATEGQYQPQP

Turning to `COc1ccc(C(=O)NC(=O)Nc2ccc3c(c2)NC(=O)/C3=C\c2[nH]c(C)c(C(=O)NCCN3CCCC3)c2C)c(F)c1`, in the data set on MOLM-13 [1], the result was Active. In addition, the inhibition (as a rule, the percentage by which the read-out fell short of the control) in [2] was 18%; in [4], 57%; in data set [5], “Dose-dependent effect”; in data set [6], “Dose-dependent effect”; in data set [8], 10%; in data set [9], 20%. Moreover, the inhibition was 40% in data set [11]; 32% in [12]; 20% in [13]; 55% in data set [15]; “Dose-dependent effect” in the data set with MOLM-13 [16]; 38% in data set [17]. Also, the inhibition in data set [18] came out at 65%; in [19], 97%; in [20], 32%; in data set [21] it was 23%; in [23] it was 13%; in data set [24], 62%. Further, the inhibition amounted to 2% in [25]; 40% in data set [26]; 74% in data set [27]; 20% in [28]; 21% in [32]. The inhibition entry in [3], in data set [7], in data set [14] and in [22] was “inactive” in each case. In addition, the Activity entry in the data set with MOLM-13 [10], with A549, in the data set with MOLM-13 [29], with THP-1 [30] and in the data set on THP-1 [31] was “Dose-dependent effect” each time.

Regarding `COc1ccc(C(=O)NC(=O)Nc2ccc3c(c2)NC(=O)/C3=C\c2ccc(C(=O)O)[nH]2)cc1`, the IC50 (in general, the concentration at which inhibition is half-maximal) is greater than 0.5 µM in data set [33]; greater than 0.5 µM in the data set on MOLM-13 [34]; greater than 0.5 µM with THP-1 [35]; greater than 0.5 µM in the data set with MV4-11 [36]; greater than 1 µM in [37]; greater than 1 µM on Aurora kinase B [41]. Moreover, the viability at 1 µM stood at 65% in data set [38], 55% in the data set with MOLM-13 [39], 65% in the data set on THP-1 [40] and 62% in the data set on MV4-11 [42].

For `COc1ccc(C(=O)NC(=O)Nc2ccc3c(c2)NC(=O)/C3=C\c2ccc[nH]2)cc1`, the half-inhibitory concentration (IC50) in [33] stood at 0.0295 µM; with MOLM-13 [34], 0.0181 µM; in the data set with THP-1 [35], 0.0684 µM; with MV4-11 [36] it was 0.0293 µM. The inhibition in [4] was determined as 30%; in data set [9], 17%; in [27], 35%; against Aurora kinase B [45], 94%; in [32], 11%. For the same molecule, the Ratio in [43] is listed as 0.37. Besides, in data set [44], the Papp amounted to 0.67 ×10⁻⁶ cm/s.

These data come from ChEMBL document CHEMBL3351479, “Novel acylureidoindolin-2-one derivatives as dual Aurora B/FLT3 inhibitors for the treatment of acute myeloid leukemia” (Eur J Med Chem, 2014).
